Experimental data reported in patent US6420558B1, “Aminopiperidine derivates as integrin αvβ3 antagonists” (Meiji Seika Kaisha, Ltd., priority 1998, dated 2002).

Tests used:
[1] = molecular target: T1, integrin α5β1 (fibronectin receptor purified from the human placenta) (Homo sapiens, UniProt P05556+P08648); experiment: α5β1 binding assay (fibronectin-fibronectin receptor binding assay); details: fibronectin binding to human placenta fibronectin receptor; read-out: α5β1 Binding inhibitory activity
T1 construct: a fibronectin receptor (protein content: 52.1 μg/ml) purified from the human placenta; from tissue; host or cells: human placenta
T1 sequence (P08648 42-894 limits assumed): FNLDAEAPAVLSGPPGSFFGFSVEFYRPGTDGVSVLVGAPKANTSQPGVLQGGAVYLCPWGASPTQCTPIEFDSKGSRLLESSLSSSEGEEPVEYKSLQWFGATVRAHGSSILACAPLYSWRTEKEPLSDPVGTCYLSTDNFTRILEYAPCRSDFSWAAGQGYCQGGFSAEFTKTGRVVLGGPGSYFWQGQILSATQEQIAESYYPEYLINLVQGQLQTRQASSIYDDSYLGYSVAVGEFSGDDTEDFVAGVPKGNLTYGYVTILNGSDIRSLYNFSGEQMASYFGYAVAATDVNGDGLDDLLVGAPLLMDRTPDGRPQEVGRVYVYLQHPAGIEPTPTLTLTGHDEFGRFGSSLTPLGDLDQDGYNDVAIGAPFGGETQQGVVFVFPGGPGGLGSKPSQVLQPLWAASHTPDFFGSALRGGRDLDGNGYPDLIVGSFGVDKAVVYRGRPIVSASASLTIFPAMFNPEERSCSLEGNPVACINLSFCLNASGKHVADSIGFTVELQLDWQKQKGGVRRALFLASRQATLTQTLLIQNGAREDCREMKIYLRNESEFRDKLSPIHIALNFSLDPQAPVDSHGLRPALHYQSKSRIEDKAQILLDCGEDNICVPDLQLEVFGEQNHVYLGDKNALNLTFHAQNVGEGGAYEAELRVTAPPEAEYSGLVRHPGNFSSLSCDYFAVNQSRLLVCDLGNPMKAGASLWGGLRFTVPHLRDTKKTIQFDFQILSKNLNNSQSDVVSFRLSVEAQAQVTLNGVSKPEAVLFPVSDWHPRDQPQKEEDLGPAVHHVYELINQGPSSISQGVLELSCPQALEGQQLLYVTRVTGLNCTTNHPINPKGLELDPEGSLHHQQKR
T1 sequence (P08648 895-1049 limits assumed): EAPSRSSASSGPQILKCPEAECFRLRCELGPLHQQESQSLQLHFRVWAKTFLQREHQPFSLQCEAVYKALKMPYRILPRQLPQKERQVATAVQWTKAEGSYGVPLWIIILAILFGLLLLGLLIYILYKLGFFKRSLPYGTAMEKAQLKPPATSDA
T1 sequence (P05556 21-798): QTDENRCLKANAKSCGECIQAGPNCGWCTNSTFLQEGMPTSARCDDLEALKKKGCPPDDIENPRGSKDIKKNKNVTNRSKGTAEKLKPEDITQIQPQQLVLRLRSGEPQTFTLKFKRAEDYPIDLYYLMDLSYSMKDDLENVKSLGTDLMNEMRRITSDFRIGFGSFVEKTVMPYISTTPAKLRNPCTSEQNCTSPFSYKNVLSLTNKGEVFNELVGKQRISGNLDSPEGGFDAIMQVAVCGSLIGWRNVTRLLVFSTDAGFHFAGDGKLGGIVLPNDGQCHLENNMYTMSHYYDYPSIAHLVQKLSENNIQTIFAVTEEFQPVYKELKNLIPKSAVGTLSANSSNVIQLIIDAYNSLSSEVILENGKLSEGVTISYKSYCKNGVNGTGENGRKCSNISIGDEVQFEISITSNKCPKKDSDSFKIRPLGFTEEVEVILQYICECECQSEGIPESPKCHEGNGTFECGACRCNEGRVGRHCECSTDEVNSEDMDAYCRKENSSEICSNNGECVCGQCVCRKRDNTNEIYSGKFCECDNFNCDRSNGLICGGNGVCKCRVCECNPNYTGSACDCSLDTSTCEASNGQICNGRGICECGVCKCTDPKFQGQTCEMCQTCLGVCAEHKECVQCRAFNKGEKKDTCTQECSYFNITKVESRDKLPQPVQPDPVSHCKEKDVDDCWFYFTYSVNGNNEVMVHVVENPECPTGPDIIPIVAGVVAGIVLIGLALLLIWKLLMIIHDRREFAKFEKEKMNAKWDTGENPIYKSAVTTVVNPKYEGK
Experimental: Integrin α5β1 antagonistic activity (lethality) was measured for the compounds according to the present invention in a fibronectin-fibronectin receptor binding assay system in accordance with the method of Kouns et al. (W. C. Kouns, D. Kirchhofer, P. Hadvary, A. Edenhofer, T. Weller, G. Pfenninger, H. R. Baumgartner, L. K. Jennings, and B. Steiner, Blood, 80, 2539-2547 (1992)).
Specifically, a fibronectin receptor (protein content: 52.1 μg/ml) purified from the human placenta by the method of Pytela et al. (R. Pytela, M. D. Pierschbacher, S. Argraves, S. Suzuki, and E. Ruoslahti, Method in Enzymology, 144, 475-489 (1987)) was diluted 25 times with TBS (20 mM Tris-HCl, 150 mM NaCl, 1 mM CaCl2, 1 mM MgCl2, pH 7.4), and distributed and coated on wells (50 μl/well) of a plate (Maxisorp, Nunc, 96 well Immuno Plate). The plate was then allowed to stand at 4° C. for one day, washed twice with TBS (200 μl/well), and then subjected to blocking with TBS (150 μl/well) containing 3% skim milk (DIFCO) at 4° C. overnight. After washing twice with TBS (200 μl/well) containing 0.05% Tween-20 and then washing twice with TBS (200 μl/well), purification was carried out according to the method of E. Engvall et al. (E. Engvall, E. Ruoslahti, and E. J. Miller, J. Exp. Med., 147, 1584-1595 (1978)), and 50 […] of fibronectin adjusted to 0.2 μg/ml by the addition of TBS (TBS-Tween) containing 0.01% Tween-20 was mixed with 50 μl of each test compound adjusted to each concentration in the wells, and a reaction was allowed to proceed at room temperature for 3 hr. After the completion of the reaction, the wells were washed five times with TBS-Tween. A solution prepared by diluting a peroxidase-labeled fibronectin antibody (CAPPEL) 500 times with TBS-Tween was added in an amount of 50 μl per well, and a reaction was allowed to proceed at room temperature for 1.5 hr. After washing five times with TBS-Tween (200 μl/well), ABTS (SIGMA) adjusted to 1 mg/ml by the addition of a ten-fold diluted POD-buffer (ZYMED) was added in an amount of 50 μl/well, and a reaction was allowed to proceed for 5 to 10 min. A 0.1 M citric acid buffer (pH 4.3) containing 0.05% NaN3 was added in an amount of 50 μl/well to stop the reaction, followed by the measurement of the absorbance at 415 nm with a microplate reader (MTP 32, Corona Electric) (reference: 675 nm). The total binding was defined as the absorbance after a reaction using 50 μl of TBS-Tween instead of the test compound, and the non-specific binding (100% inhibition) was defined as the absorbance after a reaction using 50 μl of TBS-Tween containing 2×10^−3 M RGDS. The inhibition was calculated by the following equation: [formula]
IC50 was determined from a primary regression line of the logarithm of each concentration of the test compound and the logarithm of (100−inhibition)/inhibition.

[2] = system: human vascular smooth muscle cells adhering to immobilized human vitronectin; experiment: Inhibitory activity against adhesion of human vascular smooth muscle cells to vitronectin; assay type: cell-based; details: 1.5 h; human vitronectin-coated plate, 90 min
Experimental: Inhibitory Activity Against Adhesion of Human Vascular Smooth Muscle Cells to Vitronectin
The adhesion of human vascular smooth muscle cells =+to immobilized human vitronectin was measured in accordance with the method of Liaw et al. (Liaw L, Almeida M, Hart C E, Schwartz S M, and Giachelli C M, Circulation Research, 74 (2), 214-224 (1994)).
A Dulbecco's phosphate buffer (Dulbecco's PBS(−), Nissui Pharmaceutical Co., Ltd.) solution of human plasma-derived vitronectin (CALBIOCHEM) adjusted to a concentration of 4 μg/ml was first added to wells (50 μl/well) of a microplate (Maxisorp, Nunc), and a reaction for immobilization was allowed to proceed at 4° C. overnight. After washing twice with 150 μl of Dulbecco's phosphate buffer, a Dulbecco's phosphate buffer containing 10 mg/ml of bovine serum albumin (SIGMA) was added, followed by blocking at 37° C. for one hr. The assay plate was washed twice with 150 μl of Dulbecco's phosphate buffer.
Separately, human vascular smooth muscle cells cultivated at 37° C. under 5% carbon dioxide in a medium for vascular smooth muscle cells (Clonetics) were separated using a Dulbecco's phosphate buffer containing trypsin-EDTA (GIBCO BRL), washed with Dulbecco's phosphate buffer, and then suspended in a Dulbecco's modified Eagle's basal medium (Nissui Pharmaceutical Co., Ltd.) containing 0.1% bovine serum albumin to a concentration of 5×10^5/ml.
Next, 50 μl of a Dulbecco's modified Eagle's basal medium containing 10 mg/ml of bovine serum albumin with a medicament added thereto was added to the wells of the human vitronectin-coated assay microplate, followed by pre-cultivation under 5% carbon dioxide at 37° C. for 10 min. Thereafter, 50 μl of the medium with human vascular smooth muscle cells suspended therein was added thereto, and the plate was thoroughly stirred. A reaction was allowed to proceed under 5% carbon dioxide at 37° C. for 90 min. The reaction solution containing non-adherent cells were then removed, followed by washing three times with Dulbecco's phosphate buffer. For the adhered cells, 100 μl of a Dulbecco's phosphate buffer containing 4% paraformaldehyde (Wako Pure Chemical Industries, Ltd.) was added, and immobilization was allowed to proceed at room temperature for 10 min. Next, 100 μl of a Dulbecco's phosphate buffer containing 0.5% Toluidine Blue (Croma) and 4% paraformaldehyde was added, and staining was allowed to proceed at room temperature for 5 min, followed by thorough washing with distilled water. The inside of the wells was then air-dried, and a 1% aqueous sodium dodecylsulfate solution was then added to perform cytolysis. The absorbance of the microplate thus obtained was measured at 595 nm. […] The inhibition was calculated by the following equation. IC50 was determined from a primary regression line of the logarithm of each concentration of the test compound and the logarithm of (100−inhibition)/inhibition. [formula]

GP IIb/IIIa = GP IIb/IIIa (Homo sapiens, UniProt P05106+P08514); experiment: GP IIb/IIIa antagonistic activity (method of Pharmacological Test 2 in WO 94/21599); assay type: binding
Chain of GP IIb/IIIa (P08514 32-887 limits assumed): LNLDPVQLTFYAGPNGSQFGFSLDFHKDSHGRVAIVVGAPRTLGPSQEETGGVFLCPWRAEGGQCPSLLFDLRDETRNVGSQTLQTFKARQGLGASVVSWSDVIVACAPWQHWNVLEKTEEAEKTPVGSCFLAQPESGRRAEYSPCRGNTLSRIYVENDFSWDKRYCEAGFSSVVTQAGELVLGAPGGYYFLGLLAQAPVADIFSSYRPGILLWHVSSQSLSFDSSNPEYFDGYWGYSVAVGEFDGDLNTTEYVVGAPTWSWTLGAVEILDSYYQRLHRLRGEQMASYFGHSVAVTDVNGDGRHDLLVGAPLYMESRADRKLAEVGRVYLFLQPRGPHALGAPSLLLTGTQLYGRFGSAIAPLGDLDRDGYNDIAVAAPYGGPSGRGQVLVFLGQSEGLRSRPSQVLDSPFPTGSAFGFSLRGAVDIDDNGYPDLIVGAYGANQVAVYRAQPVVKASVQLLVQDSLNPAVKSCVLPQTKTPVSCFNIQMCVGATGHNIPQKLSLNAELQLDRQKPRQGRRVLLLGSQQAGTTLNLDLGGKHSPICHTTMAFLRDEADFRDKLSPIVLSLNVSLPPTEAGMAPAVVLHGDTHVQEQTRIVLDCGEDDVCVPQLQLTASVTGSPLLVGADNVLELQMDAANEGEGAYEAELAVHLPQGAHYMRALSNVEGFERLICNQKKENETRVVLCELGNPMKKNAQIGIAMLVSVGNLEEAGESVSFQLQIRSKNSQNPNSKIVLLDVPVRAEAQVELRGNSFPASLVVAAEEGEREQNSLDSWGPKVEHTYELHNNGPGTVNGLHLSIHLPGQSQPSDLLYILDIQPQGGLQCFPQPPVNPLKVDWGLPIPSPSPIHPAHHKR
Chain of GP IIb/IIIa (P08514 891-1039 limits assumed): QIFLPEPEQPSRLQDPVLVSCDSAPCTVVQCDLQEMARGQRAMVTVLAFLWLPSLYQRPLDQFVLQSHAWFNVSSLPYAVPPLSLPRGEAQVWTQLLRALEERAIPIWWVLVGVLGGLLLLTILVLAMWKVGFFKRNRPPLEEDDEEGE
Chain of GP IIb/IIIa (P05106 27-788): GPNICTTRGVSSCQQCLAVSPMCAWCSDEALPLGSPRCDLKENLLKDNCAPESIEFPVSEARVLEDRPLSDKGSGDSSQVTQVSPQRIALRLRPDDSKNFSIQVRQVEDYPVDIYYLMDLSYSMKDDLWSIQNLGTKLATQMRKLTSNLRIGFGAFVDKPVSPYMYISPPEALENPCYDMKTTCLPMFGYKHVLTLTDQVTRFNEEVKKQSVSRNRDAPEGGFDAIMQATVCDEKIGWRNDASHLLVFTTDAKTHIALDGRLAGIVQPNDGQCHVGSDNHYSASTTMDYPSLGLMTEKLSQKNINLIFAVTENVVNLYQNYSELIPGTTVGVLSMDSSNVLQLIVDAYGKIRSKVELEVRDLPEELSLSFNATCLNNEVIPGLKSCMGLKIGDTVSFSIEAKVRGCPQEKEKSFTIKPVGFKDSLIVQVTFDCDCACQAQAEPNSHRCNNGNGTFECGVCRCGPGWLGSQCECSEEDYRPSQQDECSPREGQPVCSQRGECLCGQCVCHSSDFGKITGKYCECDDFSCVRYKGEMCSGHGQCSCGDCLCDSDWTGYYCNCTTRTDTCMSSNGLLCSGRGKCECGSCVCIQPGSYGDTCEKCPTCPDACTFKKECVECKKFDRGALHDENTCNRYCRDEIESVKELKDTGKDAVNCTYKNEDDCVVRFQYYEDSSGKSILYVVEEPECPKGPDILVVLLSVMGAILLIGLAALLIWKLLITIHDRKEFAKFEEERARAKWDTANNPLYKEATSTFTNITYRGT
Experimental: GP IIb/IIIa Antagonistic Activity and Human Platelet Aggregation Inhibitory Activity
GP IIb/IIIa antagonistic activity was measured for the compounds according to the present invention. The measurement of the GP IIb/IIIa antagonistic activity was carried out according to the method described in Pharmacological Test 2 in WO 94/21599.

Q: What does the source list for `O=C(NC[C@H](NS(=O)(=O)c1ccccc1)C(=O)O)c1ccc(N2CCC(NC3=NCCCN3)CC2)c(F)c1` [Example 52, (2S)-Benzenesulfonylamino-3-[3-fluoro-4-{4-(1,4,5,6-tetrahydropyrimidin-2-ylamino)piperidin-1-yl}-benzoylamino]propionic acid]?
A: IC50 [1]: 330 nM; IC50 [2]: ≤ 70 nM; IC50 (GP IIb/IIIa): ≤ 1 nM
